Results: patent US20060166906A1, “6-O-substituted erythromycin derivatives having improved gastrointestinal tolerance” (priority 2001, published 2006)

System: conscious ferrets
Experiment: Gastrointestinal tolerability study: nausea and emesis in conscious ferrets
Assay type: in vivo, ferret
Settings: observed 90 minutes; for % Emesis: oral gavage 30 mg/kg in 2 mL ethanol and 4 mL water, vomiting ferrets / animals dosed; for Nausea Score: oral gavage 30 mg/kg, mean number of nausea behaviors (up to five) per animal
Protocol: Example 3 and three reference compounds were investigated for their ability to produce nausea and emesis in conscious ferrets using the method as described in Drugs, 53(2), 206-234 (1997) and Cancer Treat. Rep., 66(1), 187-189 (1982). Each compound was administered to 6 ferrets by oral gavage at 30 mg/kg in 2 mL of ethanol and 4 mL of water. […] Nausea was preceded by up to five of the following behaviors in the ferret: licking, down, flop, backing, and gag. […] The mean nausea score for a compound is the total number of nausea behaviors divided by the number of animals given the compound. Percent emesis is the total number of vomiting ferrets divided by the number of animals administered the compound.

| Compound | % Emesis | Nausea Score |
| --- | --- | --- |
| CC[C@H]1OC(=O)[C@H](C)C(=O)[C@H](C)[C@@H](O[C@@H]2O[C@H](C)C[C@H](N(C)C)[C@H]2O)[C@](C)(OC)C[C@@H](C)C(=O)[C@H](C)[C@H]2N(CCCCn3cnc(-c4cccnc4)c3)C(=O)O[C@]12C [Telithromycin] | 50% | 1.8 |
| CC[C@H]1OC(=O)[C@H](C)[C@@H](O[C@H]2C[C@@](C)(OC)[C@@H](O)[C@H](C)O2)[C@H](C)[C@@H](O[C@@H]2O[C@H](C)C[C@H](N(C)C)[C@H]2O)[C@](C)(OC)C[C@@H](C)C(=O)[C@H](C)[C@@H](O)[C@]1(C)O [Clarithromycin] | 83% | 1.4 |
| CC[C@H]1OC(=O)[C@H](C)[C@@H](O[C@H]2C[C@@](C)(OC)[C@@H](O)[C@H](C)O2)[C@H](C)[C@@H](O[C@@H]2O[C@H](C)C[C@H](N(C)C)[C@H]2O)[C@](C)(O)C[C@@H](C)C(=O)[C@H](C)[C@@H](O)[C@]1(C)O [Erythromycin] | 67% | 1.2 |
